In ChEMBL document CHEMBL3421556, “Bis(aminomethyl)phosphinic Acid, a Highly Promising Scaffold for the Development of Bacterial Urease Inhibitors” (ACS Med Chem Lett, 2015):

Columns and labels:
[1] = Inhibition of urease from Sporosarcina pasteurii CCM 2056 using urea as substrate by Berthelot colorimetric assay
[2] = Inhibition of urease from Proteus mirabilis CCM 1944 using urea as substrate by Berthelot colorimetric assay

SMILES | Ki ([1]; read-out: Ki) [µM] | Ki ([2]; read-out: Ki) [µM] | Ki [1] | Ki [2]
NCP(=O)(O)CN | 80 | 82 |  | 
CNCP(=O)(O)CN | 1.59 | 34 |  | 
CCCNCP(=O)(O)CN | 11.2 | 16 |  | 
CCCCNCP(=O)(O)CN | 9.6 | 25.9 |  | 
CC(C)CNCP(=O)(O)CN | 270 | 416 |  | 
CCCCCNCP(=O)(O)CN | 13.3 | 19 |  | 
CCCCCCNCP(=O)(O)CN | 0.108 | 0.202 |  | 
CCCCCCCNCP(=O)(O)CN | 543 | 778 |  | 
CCCCCCCCNCP(=O)(O)CN |  |  | Not Active | Not Active
NCP(=O)(O)CNC1CCCCC1 |  |  | Not Active | Not Active
CN(C)CP(=O)(O)CN | 4.66 | 24.4 |  | 
CCN(CC)CP(=O)(O)CN |  |  | Not Active | Not Active
NCP(=O)(O)CN1CCCCC1 |  |  | Not Active | Not Active
CN(Cc1ccccc1)CP(=O)(O)CN | 14.2 | 58.3 |  | 
CNCP(=O)(O)CNC | 4.3 | 17.2 |  | 
O=P(O)(CNCc1ccccc1)CNCc1ccccc1 | 30.1 | 24.5 |  | 
CN(C)CP(=O)(O)CN(C)C |  | 243 | Not Active | 
CC(=O)NO [ACETOHYDROXAMIC ACID] | 3.3 | 5.7 |  | 
